Reference: ChEMBL document CHEMBL4364278, “2,7-naphthyridinone-based MET kinase inhibitors: A promising novel scaffold for antitumor drug development” (Eur J Med Chem, 2019)

Experiments:
[1] = Cmax in rat at 10 mg/kg, po; type: ADME, organism-based; set-up: dose 10 mg/kg, route oral; conditions: in vivo
[2] = Tmax in rat at 10 mg/kg, po; type: ADME, organism-based; conditions: in vivo
[3] = Half life in rat at 10 mg/kg, po; type: ADME, organism-based; conditions: in vivo
[4] = AUC (0 to infinity) in rat at 10 mg/kg, po; type: ADME, organism-based; set-up: dose 10 mg/kg, route oral, time infinity; conditions: in vivo
[5] = Oral bioavailability in rat at 10 mg/kg; type: ADME, organism-based; conditions: in vivo
[6] = Half life in rat at 2.5 mg/kg, iv; type: ADME, organism-based; conditions: in vivo
[7] = AUC (0 to infinity) in rat at 2.5 mg/kg, iv; type: ADME, organism-based; set-up: dose 2.5 mg/kg, route intravenous, time infinity; conditions: in vivo
[8] = Clearance in rat at 2.5 mg/kg, iv; type: ADME, organism-based; conditions: in vivo
[9] = Volume of distribution in rat at 2.5 mg/kg, iv; type: ADME, organism-based; conditions: in vivo
U-87 MG [10] = assay: Antitumour activity against human U87MG cells xenografted in orally dosed athymic nude mouse assessed as inhibition in tumor growth administrated for 3 weeks by caliper method; type: functional; conditions: for inhibition: U-87MG ATCC; for minimal effective dose: po, 504 h, read-out: MED
U-87 MG [11] = assay: Antitumour activity against human U87MG cells xenografted in athymic nude mouse assessed as tumor growth inhibition at 40 mg/kg, po administrated for 3 weeks by caliper method relative to control; conditions: 504 h, read-out: TGI
U-87 MG [12] = assay: animal or person; conditions: Mus musculus, po, 504 h, read-out: TGI
Description: Antitumour activity against human U87MG cells xenografted in athymic nude mouse assessed as tumor growth inhibition at 25 mg/kg, po administrated for 3 weeks by caliper method relative to control

[13] = molecular target: T1, Hepatocyte growth factor receptor (Homo sapiens, UniProt P08581)
T1 sequence (P08581 whole entry): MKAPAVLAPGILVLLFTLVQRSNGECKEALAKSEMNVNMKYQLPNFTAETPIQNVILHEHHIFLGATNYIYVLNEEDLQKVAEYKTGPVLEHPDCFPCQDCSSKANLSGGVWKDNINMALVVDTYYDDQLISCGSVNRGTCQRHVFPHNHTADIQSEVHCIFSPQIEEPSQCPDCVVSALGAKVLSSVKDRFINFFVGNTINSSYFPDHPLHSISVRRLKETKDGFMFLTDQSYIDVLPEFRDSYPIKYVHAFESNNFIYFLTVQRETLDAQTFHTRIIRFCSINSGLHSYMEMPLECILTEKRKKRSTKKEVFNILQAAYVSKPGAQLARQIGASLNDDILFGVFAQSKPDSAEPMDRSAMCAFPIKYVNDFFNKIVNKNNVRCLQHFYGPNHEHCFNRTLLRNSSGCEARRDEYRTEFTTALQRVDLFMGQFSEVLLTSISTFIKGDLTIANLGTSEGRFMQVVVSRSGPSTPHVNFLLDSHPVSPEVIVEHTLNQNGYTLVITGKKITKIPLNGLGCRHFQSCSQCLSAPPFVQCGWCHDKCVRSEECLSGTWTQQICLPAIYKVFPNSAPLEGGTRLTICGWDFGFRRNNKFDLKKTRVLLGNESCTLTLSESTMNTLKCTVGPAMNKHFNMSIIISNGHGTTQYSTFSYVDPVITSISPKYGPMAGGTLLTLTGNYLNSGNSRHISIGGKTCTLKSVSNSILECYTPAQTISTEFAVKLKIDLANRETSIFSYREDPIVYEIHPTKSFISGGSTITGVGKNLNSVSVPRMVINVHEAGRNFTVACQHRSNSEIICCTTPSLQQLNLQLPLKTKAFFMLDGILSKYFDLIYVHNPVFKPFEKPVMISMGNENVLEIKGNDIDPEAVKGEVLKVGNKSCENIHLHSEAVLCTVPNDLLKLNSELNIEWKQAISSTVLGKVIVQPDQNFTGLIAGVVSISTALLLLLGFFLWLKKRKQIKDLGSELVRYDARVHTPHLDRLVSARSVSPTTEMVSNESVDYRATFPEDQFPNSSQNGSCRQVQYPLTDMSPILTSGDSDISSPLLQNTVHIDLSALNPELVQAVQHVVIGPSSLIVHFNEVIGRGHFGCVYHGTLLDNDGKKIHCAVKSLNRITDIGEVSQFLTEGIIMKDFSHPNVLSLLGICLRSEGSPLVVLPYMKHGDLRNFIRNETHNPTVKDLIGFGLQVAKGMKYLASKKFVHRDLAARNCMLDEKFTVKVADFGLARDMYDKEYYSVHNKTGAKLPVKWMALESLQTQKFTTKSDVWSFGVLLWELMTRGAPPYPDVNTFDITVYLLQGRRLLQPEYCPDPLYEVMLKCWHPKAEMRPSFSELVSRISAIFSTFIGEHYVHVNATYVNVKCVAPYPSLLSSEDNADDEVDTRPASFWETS
Description: Inhibition of human recombinant His-tagged cMET cytoplasmic domain expressed in baculovirus expression system using biotin as substrate preincubated for 5 mins followed by substrate addition and measured after 30 to 60 mins by HTRF assay

[14] = molecular target: Aurora kinase B (Homo sapiens) (UniProt Q96GD4); assay: Inhibition of AuroraB (unknown origin) at 1 uM relative to control
Chain of Aurora kinase B (Homo sapiens) (Q96GD4 whole entry): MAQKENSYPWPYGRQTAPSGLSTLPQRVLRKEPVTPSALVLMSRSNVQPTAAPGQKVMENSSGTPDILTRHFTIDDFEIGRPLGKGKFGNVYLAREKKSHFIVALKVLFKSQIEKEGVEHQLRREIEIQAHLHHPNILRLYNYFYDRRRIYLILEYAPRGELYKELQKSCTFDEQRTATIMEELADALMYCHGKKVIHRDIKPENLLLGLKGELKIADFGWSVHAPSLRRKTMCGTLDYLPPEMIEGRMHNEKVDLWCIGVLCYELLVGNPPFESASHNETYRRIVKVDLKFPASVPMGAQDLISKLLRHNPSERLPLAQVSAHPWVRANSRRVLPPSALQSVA

[15] = molecular target: Tyrosine-protein kinase receptor UFO (Homo sapiens) (UniProt P30530); assay: Inhibition of AXL (unknown origin) at 1 uM relative to control
[16] = molecular target: Discoidin domain-containing receptor 2 (Homo sapiens) (UniProt Q16832); assay: Inhibition of DDR2 (unknown origin) at 1 uM relative to control
[17] = molecular target: Dual specificity tyrosine-phosphorylation-regulated kinase 2 (Homo sapiens) (UniProt Q92630); assay: Inhibition of DYRK2 (unknown origin) at 1 uM relative to control
[18] = molecular target: Ephrin type-A receptor 3 (Homo sapiens) (UniProt P29320); assay: Inhibition of EphA3 (unknown origin) at 1 uM relative to control
[19] = molecular target: Ephrin type-B receptor 4 (Homo sapiens) (UniProt P54760); assay: Inhibition of EphB4 (unknown origin) at 1 uM relative to control
[20] = molecular target: Tyrosine-protein kinase Fes/Fps (Homo sapiens) (UniProt P07332); assay: Inhibition of FES (unknown origin) at 1 uM relative to control
[21] = molecular target: Tyrosine-protein kinase Fgr (Homo sapiens) (UniProt P09769); assay: Inhibition of FGR (unknown origin) at 1 uM relative to control
[22] = molecular target: Vascular endothelial growth factor receptor 1 (Homo sapiens) (UniProt P17948); assay: Inhibition of FLT1 (unknown origin) at 1 uM relative to control
Chain of Vascular endothelial growth factor receptor 1 (Homo sapiens) (P17948 whole entry): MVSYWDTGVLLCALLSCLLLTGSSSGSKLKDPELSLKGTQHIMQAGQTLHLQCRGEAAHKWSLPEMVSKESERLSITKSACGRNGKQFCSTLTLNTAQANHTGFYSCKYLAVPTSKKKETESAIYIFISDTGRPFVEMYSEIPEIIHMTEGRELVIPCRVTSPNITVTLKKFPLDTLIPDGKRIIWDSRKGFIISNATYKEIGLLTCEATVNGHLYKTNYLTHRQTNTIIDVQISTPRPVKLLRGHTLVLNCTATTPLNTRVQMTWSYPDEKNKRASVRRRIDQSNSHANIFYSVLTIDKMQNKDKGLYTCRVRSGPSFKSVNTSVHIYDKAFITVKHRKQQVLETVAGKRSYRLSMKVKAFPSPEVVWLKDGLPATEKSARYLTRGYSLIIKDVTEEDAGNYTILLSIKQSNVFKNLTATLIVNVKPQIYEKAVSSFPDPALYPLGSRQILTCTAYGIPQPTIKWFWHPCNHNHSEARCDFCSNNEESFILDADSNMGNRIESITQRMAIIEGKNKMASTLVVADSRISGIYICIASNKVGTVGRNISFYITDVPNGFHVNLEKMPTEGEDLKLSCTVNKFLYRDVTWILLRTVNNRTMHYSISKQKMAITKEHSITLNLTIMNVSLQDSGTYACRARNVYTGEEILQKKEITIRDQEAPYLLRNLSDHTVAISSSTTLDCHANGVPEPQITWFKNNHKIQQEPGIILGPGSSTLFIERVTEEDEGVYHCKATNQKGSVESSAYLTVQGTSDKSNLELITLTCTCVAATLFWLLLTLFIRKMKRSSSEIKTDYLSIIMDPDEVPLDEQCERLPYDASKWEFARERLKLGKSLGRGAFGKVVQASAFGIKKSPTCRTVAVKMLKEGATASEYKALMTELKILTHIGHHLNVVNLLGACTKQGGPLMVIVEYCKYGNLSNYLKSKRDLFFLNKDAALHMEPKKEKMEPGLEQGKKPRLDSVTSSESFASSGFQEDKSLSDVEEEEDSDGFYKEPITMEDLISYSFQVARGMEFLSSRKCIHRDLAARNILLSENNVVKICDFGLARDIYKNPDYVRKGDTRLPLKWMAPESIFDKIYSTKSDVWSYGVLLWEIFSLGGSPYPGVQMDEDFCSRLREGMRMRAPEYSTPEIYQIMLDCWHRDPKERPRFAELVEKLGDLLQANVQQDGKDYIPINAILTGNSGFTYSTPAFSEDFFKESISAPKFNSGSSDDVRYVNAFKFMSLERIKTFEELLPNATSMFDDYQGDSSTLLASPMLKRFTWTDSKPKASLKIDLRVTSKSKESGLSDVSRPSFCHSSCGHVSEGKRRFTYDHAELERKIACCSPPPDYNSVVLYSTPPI

[23] = molecular target: Vascular endothelial growth factor receptor 3 (Homo sapiens) (UniProt P35916); assay: Inhibition of FLT4 (unknown origin) at 1 uM relative to control
[24] = molecular target: Macrophage colony-stimulating factor 1 receptor (Homo sapiens) (UniProt P07333); assay: Inhibition of FMS (unknown origin) at 1 uM relative to control
[25] = molecular target: Tyrosine-protein kinase Lck (Homo sapiens) (UniProt P06239); assay: Inhibition of LCK (unknown origin) at 1 uM relative to control
[26] = molecular target: Tyrosine-protein kinase Lyn (Homo sapiens) (UniProt P07948); assay: Inhibition of LYN (unknown origin) at 1 uM relative to control
[27] = molecular target: Tyrosine-protein kinase Mer (Homo sapiens) (UniProt Q12866); assay: Inhibition of MER (unknown origin) at 1 uM relative to control
[28] = molecular target: cAMP-dependent protein kinase catalytic subunit alpha (Homo sapiens) (UniProt P17612); assay: Inhibition of PKA (unknown origin) at 1 uM relative to control
[29] = molecular target: Proto-oncogene tyrosine-protein kinase receptor Ret (Homo sapiens) (UniProt P07949); assay: Inhibition of RET (unknown origin) at 1 uM relative to control
[30] = molecular target: Macrophage-stimulating protein receptor (Homo sapiens) (UniProt Q04912); assay: Inhibition of RON (unknown origin) at 1 uM relative to control
[31] = molecular target: Proto-oncogene tyrosine-protein kinase ROS (Homo sapiens) (UniProt P08922); assay: Inhibition of ROS (unknown origin) at 1 uM relative to control
[32] = molecular target: Tyrosine-protein kinase receptor TYRO3 (Homo sapiens) (UniProt Q06418); assay: Inhibition of RSE (unknown origin) at 1 uM relative to control
[33] = molecular target: Proto-oncogene tyrosine-protein kinase Src (Homo sapiens) (UniProt P12931); assay: Inhibition of SRC (1 to 530 residues)(unknown origin) at 1 uM relative to control
Chain of Proto-oncogene tyrosine-protein kinase Src (Homo sapiens) (P12931 2-536 limits assumed): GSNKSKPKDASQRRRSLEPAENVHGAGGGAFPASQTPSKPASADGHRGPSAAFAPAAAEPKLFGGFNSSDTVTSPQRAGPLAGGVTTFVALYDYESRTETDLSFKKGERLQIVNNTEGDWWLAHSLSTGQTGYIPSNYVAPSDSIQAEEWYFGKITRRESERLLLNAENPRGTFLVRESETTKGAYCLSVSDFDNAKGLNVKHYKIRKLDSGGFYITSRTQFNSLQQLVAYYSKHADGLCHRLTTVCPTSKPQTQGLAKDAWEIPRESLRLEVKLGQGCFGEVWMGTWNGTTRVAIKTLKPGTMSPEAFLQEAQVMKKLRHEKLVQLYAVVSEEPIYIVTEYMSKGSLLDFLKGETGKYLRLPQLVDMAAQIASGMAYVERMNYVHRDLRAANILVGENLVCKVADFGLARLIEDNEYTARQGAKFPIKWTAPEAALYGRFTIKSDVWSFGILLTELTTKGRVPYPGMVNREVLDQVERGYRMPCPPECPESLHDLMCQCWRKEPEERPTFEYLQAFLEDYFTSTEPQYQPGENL

[34] = molecular target: High affinity nerve growth factor receptor (Homo sapiens) (UniProt P04629); assay: Inhibition of TRKA (unknown origin) at 1 uM relative to control
[35] = molecular target: BDNF/NT-3 growth factors receptor (Homo sapiens) (UniProt Q16620); assay: Inhibition of TRKB (unknown origin) at 1 uM relative to control
[36] = Fraction unbound in rat plasma at 2 uM; type: ADME, cell-free
[37] = Fraction unbound in mouse plasma at 2 uM; type: ADME, cell-free
[38] = Fraction unbound in human plasma at 2 uM; type: ADME, cell-free
U-87 MG [39] = assay: Antitumour activity against human U87MG cells xenografted in athymic nude mouse assessed as tumor growth inhibition at 12.5 mg/kg, po administrated for 3 weeks by caliper method relative to control; type: functional, U-87MG ATCC; conditions: 504 h, read-out: TGI
U-87 MG [40] = assay: Antitumour activity against human U87MG cells xenografted in athymic nude mouse assessed as tumor growth inhibition at 50 mg/kg, po administrated for 3 weeks by caliper method relative to control; type: functional, U-87MG ATCC; conditions: 504 h, read-out: TGI
HT-29 [41] = assay: Antitumour activity against human HT-29 cells xenografted in athymic nude mouse assessed as tumor growth inhibition at 25 mg/kg, po administrated for 3 weeks by caliper method relative to control; type: functional; conditions: HT-29, po, 504 h, read-out: TGI
HT-29 [42] = assay: Antitumour activity against human HT-29 cells xenografted in athymic nude mouse assessed as tumor growth inhibition at 50 mg/kg, po administrated for 3 weeks by caliper method relative to control; type: functional; conditions: HT-29, po, 504 h, read-out: TGI
[43] = molecular target: T1, Hepatocyte growth factor receptor; remark: listed apart in the source
Description: Inhibition of HGF-induced cMET autophosphorylation in human MKN45 cells preincubated for 1 hr followed by HGF addition and measured after 10 mins by ELISA

[44] = molecular target: Vascular endothelial growth factor receptor 2 (Homo sapiens, UniProt P35968)
Chain of Vascular endothelial growth factor receptor 2 (P35968 whole entry): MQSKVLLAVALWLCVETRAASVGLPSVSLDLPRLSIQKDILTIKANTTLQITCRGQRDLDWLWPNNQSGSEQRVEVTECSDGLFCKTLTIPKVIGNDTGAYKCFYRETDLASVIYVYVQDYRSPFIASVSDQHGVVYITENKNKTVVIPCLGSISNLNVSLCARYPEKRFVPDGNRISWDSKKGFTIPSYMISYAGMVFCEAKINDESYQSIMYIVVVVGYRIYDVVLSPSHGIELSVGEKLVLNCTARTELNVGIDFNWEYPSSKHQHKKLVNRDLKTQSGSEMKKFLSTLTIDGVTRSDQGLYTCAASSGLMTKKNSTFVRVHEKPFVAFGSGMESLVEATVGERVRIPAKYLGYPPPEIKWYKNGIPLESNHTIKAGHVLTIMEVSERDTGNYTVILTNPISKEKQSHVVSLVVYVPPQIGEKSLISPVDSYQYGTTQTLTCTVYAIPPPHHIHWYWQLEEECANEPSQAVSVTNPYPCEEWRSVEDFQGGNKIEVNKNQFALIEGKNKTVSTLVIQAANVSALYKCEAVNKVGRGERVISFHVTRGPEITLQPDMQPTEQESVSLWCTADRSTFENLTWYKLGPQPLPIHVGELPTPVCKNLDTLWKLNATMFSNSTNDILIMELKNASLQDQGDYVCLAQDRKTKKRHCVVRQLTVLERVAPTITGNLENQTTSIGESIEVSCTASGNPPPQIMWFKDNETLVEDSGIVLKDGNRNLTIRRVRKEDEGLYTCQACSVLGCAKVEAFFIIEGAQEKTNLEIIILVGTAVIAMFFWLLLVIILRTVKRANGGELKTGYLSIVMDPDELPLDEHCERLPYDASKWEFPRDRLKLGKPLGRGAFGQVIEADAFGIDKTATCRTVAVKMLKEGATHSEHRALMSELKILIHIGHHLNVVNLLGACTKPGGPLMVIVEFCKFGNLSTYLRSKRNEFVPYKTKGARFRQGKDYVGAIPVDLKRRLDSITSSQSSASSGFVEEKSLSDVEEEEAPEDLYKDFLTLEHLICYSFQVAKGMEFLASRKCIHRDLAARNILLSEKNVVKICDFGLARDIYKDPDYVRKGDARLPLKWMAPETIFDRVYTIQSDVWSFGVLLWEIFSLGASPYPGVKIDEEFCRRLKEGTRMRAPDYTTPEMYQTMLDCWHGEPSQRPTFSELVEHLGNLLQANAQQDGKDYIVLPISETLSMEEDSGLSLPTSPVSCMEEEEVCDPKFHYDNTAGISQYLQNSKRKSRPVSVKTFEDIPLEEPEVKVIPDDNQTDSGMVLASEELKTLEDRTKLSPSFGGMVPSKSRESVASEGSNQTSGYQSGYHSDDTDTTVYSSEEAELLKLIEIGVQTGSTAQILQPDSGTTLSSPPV
Description: Inhibition of recombinant human His-tagged VEGFR2 cytoplasmic domain expressed in baculovirus expression system using biotin as substrate preincubated for 5 mins followed by substrate addition and measured after 30 to 60 mins by HTRF assay

Cc1cc2ccnc(Nc3ccc(Oc4ccnc(N)c4I)c(F)c3)c2c(=O)n1-c1ccc(F)cc1
Cmax [1]: 2700 ng/mL
Tmax [2]: 1.5 h
half-life [3]: 4.9 h
AUC(0-inf) [4]: 25700 ng·h/mL
bioavailability [5]: 49%
half-life [6]: 4.2 h
AUC(0-inf) [7]: 13100 ng·h/mL
clearance [8]: 6.67 mL/min/kg
Vd [9]: 2.9 L/kg

Cc1cc2ccnc(Nc3ccc(Oc4ccnc(N)c4Cl)c(F)c3)c2c(=O)n1-c1ccc(F)cc1
Cmax [1]: 3700 ng/mL
Tmax [2]: 2.3 h
half-life [3]: 11 h
AUC(0-inf) [4]: 21200 ng·h/mL
bioavailability [5]: 51%
half-life [6]: 7 h
AUC [7]: 10500 ng·h/mL
CL [8]: 103 mL/min/kg
Vd [9]: 2.4 L/kg
inhibition (U-87 MG [10]): Dose-dependent effect
minimal effective dose (U-87 MG [10]): 32.5 mg/kg
inhibition in vivo at 40 mg/kg (U-87 MG [11]): 72%
inhibition in vivo at 25 mg/kg (U-87 MG [12]): 44%

Cc1cc2ccnc(Nc3ccc(Oc4ccnc(N)c4Cl)c(F)c3)c2c(=O)n1-c1ccc(OC(F)(F)F)cc1
IC50 [13]: > 1000 nM

Nc1nccc(Oc2ccc(Nc3nccc4ccn(-c5ccc(F)cc5)c(=O)c34)cc2F)c1Cl
inhibition [14]: 44%
inhibition [15]: 97%
inhibition [16]: 98%
inhibition [17]: -9%
inhibition [18]: 38%
inhibition [19]: 10%
inhibition [20]: 10%
inhibition [21]: 62%
inhibition [22]: 95%
inhibition [23]: 100%
inhibition [24]: 88%
inhibition [25]: 75%
inhibition [26]: 43%
inhibition [27]: 100%
inhibition [28]: 43%
inhibition [29]: 96%
inhibition [30]: 100%
inhibition [31]: 87%
inhibition [32]: 83%
inhibition [33]: 35%
inhibition [34]: 99%
inhibition [35]: 100%
Cmax [1]: 1600 ng/mL
Tmax [2]: 1.2 h
half-life [3]: 5.1 h
AUC(0-inf) [4]: 6700 ng·h/mL
bioavailability [5]: 54%
half-life [6]: 3.2 h
AUC(0-inf) [7]: 3100 ng·h/mL
clearance [8]: 13.3 mL/min/kg
Vd [9]: 3.6 L/kg
Fu [36]: < 0.5%
Fu [37]: < 0.5%
Fu [38]: < 0.5%
inhibition (U-87 MG [10]): Dose-dependent effect
minimal effective dose (U-87 MG [10]): 12.5 mg/kg
inhibition in vivo at 12.5 mg/kg (U-87 MG [39]): 53%
inhibition in vivo at 50 mg/kg (U-87 MG [40]): 114%
inhibition in vivo at 25 mg/kg (HT-29 [41]): 50%
inhibition in vivo at 50 mg/kg (HT-29 [42]): 95%
IC50 [43]: 69 nM
inhibition in vivo at 25 mg/kg (U-87 MG [12]): 100%

CCOc1ccn(-c2ccc(F)cc2)c(=O)c1C(=O)Nc1ccc(Oc2ccnc(N)c2Cl)c(F)c1 [BMS-777607]
inhibition in vivo at 25 mg/kg (HT-29 [41]): 15%
IC50 [13]: 7.6 nM
IC50 [43]: 46.6 nM
IC50 [44]: 139 nM
inhibition in vivo at 25 mg/kg (U-87 MG [12]): 98%
